# Like-named read-outs stand apart in the source and are kept apart here.
# Assays:
# [1] = molecular target: EGFR L858R/T790M/C797S (Homo sapiens, UniProt P00533, C797S/L858R/T790M); test: Biochemical EGFR kinase assay (Lance Ultra TR-FRET), triple mutant L858R/T790M/C797S
# Procedure, shortened: (§1)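 Kinase activity is measured by TR-FRET phosphopeptide detection. Compounds span 0.003 μM to 10 μM; the 1 h reaction at room temperature is quenched with EDTA, then labelled antibody (2 nM) is incubated 60 min before reading.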
# [2] = molecular target: EGFR del19/T790M/C797S (Homo sapiens, UniProt P00533, C797S/DEL746-750/T790M); test: Biochemical EGFR kinase assay (Lance Ultra TR-FRET), triple mutant del19/T790M/C797S
# Chain of EGFR del19/T790M/C797S (P00533 with tags, fused parts or gaps DEL746-750/T790M/C797S): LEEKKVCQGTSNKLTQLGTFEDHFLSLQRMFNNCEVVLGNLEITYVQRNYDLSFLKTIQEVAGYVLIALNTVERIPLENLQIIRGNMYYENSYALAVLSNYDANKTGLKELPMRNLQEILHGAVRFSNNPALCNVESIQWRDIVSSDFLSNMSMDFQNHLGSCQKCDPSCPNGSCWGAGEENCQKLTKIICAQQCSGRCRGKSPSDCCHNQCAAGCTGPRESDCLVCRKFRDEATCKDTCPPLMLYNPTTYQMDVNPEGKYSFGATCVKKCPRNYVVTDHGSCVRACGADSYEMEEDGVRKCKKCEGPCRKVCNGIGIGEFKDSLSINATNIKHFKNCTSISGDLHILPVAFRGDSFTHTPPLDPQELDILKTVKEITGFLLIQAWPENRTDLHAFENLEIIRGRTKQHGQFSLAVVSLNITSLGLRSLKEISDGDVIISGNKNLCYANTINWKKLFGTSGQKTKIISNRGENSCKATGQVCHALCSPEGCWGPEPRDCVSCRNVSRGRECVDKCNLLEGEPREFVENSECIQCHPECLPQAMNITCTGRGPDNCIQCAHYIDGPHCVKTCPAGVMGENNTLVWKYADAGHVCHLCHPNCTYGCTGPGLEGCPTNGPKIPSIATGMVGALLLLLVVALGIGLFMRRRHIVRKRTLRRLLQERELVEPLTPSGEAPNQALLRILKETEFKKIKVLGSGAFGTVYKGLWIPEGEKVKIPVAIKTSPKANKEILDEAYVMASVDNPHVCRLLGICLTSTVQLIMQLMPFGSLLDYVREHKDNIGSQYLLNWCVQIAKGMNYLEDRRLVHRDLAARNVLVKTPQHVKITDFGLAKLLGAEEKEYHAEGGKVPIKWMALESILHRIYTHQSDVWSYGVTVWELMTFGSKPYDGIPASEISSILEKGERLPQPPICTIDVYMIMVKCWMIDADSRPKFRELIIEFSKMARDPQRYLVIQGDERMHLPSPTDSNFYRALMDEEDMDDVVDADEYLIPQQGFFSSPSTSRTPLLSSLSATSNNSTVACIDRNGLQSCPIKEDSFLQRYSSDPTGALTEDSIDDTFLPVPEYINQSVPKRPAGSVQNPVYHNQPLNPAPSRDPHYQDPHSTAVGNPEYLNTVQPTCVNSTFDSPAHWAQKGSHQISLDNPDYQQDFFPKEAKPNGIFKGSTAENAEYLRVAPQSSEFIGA
# Procedure, shortened: as §1
# [3] = molecular target: EGFR L858R/C797S (Homo sapiens, UniProt P00533, C797S/L858R); test: Biochemical EGFR kinase assay (Lance Ultra TR-FRET), double mutant L858R/C797S
# Procedure, shortened: as §1
# [4] = molecular target: EGFR del19/C797S (Homo sapiens, UniProt P00533, C797S/DEL746-750); test: Biochemical EGFR kinase assay (Lance Ultra TR-FRET), double mutant del19/C797S
# Chain of EGFR del19/C797S (P00533 with tags, fused parts or gaps DEL746-750/C797S): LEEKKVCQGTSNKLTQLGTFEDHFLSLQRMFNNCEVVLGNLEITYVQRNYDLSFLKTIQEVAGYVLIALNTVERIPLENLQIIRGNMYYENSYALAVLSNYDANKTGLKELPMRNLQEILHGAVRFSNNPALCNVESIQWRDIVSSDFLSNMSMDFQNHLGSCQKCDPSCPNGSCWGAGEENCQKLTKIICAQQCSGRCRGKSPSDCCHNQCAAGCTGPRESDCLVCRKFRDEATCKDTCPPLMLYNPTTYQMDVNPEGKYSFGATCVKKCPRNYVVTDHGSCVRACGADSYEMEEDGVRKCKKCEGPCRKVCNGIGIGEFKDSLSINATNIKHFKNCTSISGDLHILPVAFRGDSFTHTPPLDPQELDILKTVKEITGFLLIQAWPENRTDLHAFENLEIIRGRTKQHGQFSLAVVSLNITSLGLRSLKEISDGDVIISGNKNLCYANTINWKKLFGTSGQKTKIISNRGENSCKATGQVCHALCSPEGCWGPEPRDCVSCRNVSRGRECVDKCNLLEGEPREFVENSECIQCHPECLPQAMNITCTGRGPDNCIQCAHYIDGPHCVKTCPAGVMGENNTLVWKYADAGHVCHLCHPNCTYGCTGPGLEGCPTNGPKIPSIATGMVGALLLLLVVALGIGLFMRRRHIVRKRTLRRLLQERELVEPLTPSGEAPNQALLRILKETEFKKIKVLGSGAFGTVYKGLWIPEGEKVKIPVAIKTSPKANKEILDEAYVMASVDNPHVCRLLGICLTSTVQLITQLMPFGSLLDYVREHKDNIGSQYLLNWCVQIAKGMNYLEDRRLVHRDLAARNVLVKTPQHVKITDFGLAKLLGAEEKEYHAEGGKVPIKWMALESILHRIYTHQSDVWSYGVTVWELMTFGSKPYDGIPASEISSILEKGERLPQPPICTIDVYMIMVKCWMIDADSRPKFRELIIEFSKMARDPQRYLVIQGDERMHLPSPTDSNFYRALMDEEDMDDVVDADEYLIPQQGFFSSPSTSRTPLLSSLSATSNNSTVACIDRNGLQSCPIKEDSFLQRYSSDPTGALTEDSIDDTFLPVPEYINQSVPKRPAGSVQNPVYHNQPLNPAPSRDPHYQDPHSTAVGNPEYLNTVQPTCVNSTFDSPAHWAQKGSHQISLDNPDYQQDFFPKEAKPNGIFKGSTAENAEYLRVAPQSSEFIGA
# Procedure, shortened: as §1
# [5] = molecular target: EGFR wildtype (Homo sapiens, UniProt P00533); test: Biochemical EGFR kinase assay (Lance Ultra TR-FRET), wildtype
# Chain of EGFR wildtype (P00533 25-1210): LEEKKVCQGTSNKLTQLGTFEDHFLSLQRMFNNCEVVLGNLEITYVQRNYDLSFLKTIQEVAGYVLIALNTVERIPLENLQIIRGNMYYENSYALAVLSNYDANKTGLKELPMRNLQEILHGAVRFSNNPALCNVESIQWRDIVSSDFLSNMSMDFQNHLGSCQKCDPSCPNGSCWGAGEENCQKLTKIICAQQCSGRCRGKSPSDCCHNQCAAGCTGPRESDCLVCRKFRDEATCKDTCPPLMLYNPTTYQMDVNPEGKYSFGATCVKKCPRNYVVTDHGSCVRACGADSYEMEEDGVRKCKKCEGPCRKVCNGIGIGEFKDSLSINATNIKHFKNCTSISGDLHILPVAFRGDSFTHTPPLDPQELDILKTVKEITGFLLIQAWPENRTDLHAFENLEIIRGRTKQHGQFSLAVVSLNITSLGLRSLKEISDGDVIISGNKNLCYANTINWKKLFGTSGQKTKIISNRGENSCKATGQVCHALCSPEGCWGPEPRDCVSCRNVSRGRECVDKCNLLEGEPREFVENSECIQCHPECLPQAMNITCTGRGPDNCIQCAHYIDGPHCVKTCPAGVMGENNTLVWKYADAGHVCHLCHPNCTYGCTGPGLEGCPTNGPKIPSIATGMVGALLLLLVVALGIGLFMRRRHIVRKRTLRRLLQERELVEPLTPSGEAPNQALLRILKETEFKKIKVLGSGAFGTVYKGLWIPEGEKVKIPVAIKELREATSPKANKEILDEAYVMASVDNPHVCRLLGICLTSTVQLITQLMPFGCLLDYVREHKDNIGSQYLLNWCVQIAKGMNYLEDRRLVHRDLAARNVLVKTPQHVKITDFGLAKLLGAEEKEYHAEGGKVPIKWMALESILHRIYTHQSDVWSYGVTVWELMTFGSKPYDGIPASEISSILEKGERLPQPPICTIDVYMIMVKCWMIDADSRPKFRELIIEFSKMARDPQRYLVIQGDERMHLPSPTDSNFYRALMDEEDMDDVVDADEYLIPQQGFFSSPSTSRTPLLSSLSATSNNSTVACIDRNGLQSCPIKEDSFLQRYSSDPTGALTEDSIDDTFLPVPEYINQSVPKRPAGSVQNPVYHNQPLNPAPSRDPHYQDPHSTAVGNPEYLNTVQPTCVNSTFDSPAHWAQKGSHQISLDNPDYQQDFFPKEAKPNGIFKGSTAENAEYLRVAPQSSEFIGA
# Procedure, shortened: as §1
# [6] = ATP at Km, read-out: IC50 L858R/T790M/C797S, Km ATP
# [7] = ATP at Km, read-out: IC50 del19/T790M/C797S, Km ATP
# [8] = ATP at Km, read-out: IC50 L858R/C797S, Km ATP
# [9] = ATP at Km, read-out: IC50 del19/C797S, Km ATP
# [10] = ATP at Km, read-out: IC50 WT, Km ATP
# [11] = IC50 del19/T790M/C797S, 100 μM ATP
# [12] = IC50 L858R/T790M/C797S, 100 μM ATP
# [13] = Km ATP, read-out: IC50 L858R/T790M/C797S (nM) Km ATP
# [14] = Km ATP, read-out: IC50 del19/T790M/C797S (nM) Km ATP
# [15] = Km ATP, read-out: IC50 L858R/C797S (nM) Km ATP
# [16] = Km ATP, read-out: IC50 del19/C797S (nM) Km ATP
# [17] = Km ATP, read-out: IC50 WT (nM) Km ATP
# [18] = IC50 L858R/T790M/C797S (nM) 100 μM ATP, 100 μM ATP
# [19] = IC50 del19/T790M/C797S (nM) 100 μM ATP, 100 μM ATP
# [20] = IC50 L858R/C797S (nM) 100 μM ATP, 100 μM ATP
# [21] = IC50 del19/C797S (nM) 100 μM ATP, 100 μM ATP
# [22] = IC50 WT (nM) 100 μM ATP, 100 μM ATP
# Chain of EGFR L858R/T790M/C797S (P00533 25-1210 T790M/C797S/L858R): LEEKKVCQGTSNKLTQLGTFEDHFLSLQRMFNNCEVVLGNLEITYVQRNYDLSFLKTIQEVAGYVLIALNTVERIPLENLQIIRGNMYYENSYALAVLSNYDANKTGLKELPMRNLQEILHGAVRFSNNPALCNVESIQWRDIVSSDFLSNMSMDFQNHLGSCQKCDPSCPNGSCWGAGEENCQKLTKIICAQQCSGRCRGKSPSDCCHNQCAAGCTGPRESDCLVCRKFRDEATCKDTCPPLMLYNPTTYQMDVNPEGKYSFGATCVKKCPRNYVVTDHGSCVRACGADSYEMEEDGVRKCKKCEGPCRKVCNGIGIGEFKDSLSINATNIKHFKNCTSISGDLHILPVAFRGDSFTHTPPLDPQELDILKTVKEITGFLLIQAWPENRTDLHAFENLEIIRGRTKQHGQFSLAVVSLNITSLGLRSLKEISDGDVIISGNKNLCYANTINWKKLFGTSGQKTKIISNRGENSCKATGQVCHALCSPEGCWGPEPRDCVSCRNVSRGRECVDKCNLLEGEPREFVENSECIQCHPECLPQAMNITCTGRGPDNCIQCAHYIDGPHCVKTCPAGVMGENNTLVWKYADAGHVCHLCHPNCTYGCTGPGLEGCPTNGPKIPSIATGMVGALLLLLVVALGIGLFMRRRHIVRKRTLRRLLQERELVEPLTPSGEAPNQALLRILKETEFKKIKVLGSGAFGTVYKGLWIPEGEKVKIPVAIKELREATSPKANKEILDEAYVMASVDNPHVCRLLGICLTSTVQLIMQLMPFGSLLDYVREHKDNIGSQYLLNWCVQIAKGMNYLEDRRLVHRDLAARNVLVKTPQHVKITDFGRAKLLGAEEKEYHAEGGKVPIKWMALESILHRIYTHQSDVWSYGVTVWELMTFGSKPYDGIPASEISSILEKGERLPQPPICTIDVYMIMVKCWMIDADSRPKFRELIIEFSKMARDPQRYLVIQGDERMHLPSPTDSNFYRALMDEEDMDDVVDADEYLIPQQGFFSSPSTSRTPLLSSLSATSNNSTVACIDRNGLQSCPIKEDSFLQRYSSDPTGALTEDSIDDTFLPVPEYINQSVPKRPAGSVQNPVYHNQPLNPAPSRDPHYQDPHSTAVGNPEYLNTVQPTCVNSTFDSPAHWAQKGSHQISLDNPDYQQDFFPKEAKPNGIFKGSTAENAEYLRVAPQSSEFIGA
Structure (SMILES),"IC50 [1, 6] [nM]","IC50 [2, 7] [nM]","IC50 [3, 8] [nM]","IC50 [4, 9] [nM]","IC50 [5, 10] [nM]","IC50 [2, 11] [nM]","IC50 ([3]; IC50 L858R/C797S, 100 μM ATP) [nM]","IC50 ([4]; IC50 del19/C797S, 100 μM ATP) [nM]","IC50 ([5]; IC50 WT, 100 μM ATP) [nM]","IC50 [1, 12] [nM]","IC50 [1, 13] [nM]","IC50 [2, 14] [nM]","IC50 [3, 15] [nM]","IC50 [4, 16] [nM]","IC50 [5, 17] [nM]","IC50 [1, 18] [nM]","IC50 [2, 19] [nM]","IC50 [3, 20] [nM]","IC50 [4, 21] [nM]","IC50 [5, 22] [nM]"
"CN1CCC(Oc2ccc(-c3cnc(Nc4ccnc(-c5cnn(S(=O)(=O)C6CC6)c5)n4)cc3NC3CCN(CCF)CC3)nc2)CC1 [Example 256, N^6′-(2-(1-(Cyclopropylsulfonyl)-1H-pyrazol-4-yl)pyrimidin-4-yl)-N^4′-(1-(2-fluoroethyl)piperidin-4-yl)-5-((1-methylpiperidin-4-yl)oxy)-[2,3′-bipyridine]-4′,6′-diamine]",0.1,0.1,0.6,3.8,61.6,–,–,–,–,–,–,–,–,–,–,–,–,–,–,–
"C[C@]1(O)CC[C@@H](Nc2cc(Nc3ccnc(-c4cnn(S(=O)(=O)C5CC5)c4)n3)ncc2-c2cc(NCCC(F)(F)F)ccn2)CC1 [Example 277, (1s,4s)-4-((6′-((2-(1-(Cyclopropylsulfonyl)-1H-pyrazol-4-yl)pyrimidin-4-yl)amino)-4-((3,3,3-trifluoropropyl)amino)-[2,3′-bipyridin]-4′-yl)amino)-1-methylcyclohexan-1-ol]",1.6,4.4,2.2,0.9,9.8,4.7,11.2,3.9,> 10000,–,–,–,–,–,–,–,–,–,–,–
"O=S(=O)(C1CC1)n1cc(-c2nccc(Nc3cc(NC4CCC(CO)CC4)c(-c4ccc(C(O)C(F)(F)F)cn4)cn3)n2)cn1 (centres unmarked) [Example 227, 1-(6′-((2-(1-(Cyclopropylsulfonyl)-1H-pyrazol-4-yl)pyrimidin-4-yl)amino)-4′-(((1s,4s)-4-(hydroxymethyl)cyclohexyl)amino)-[2,3′-bipyridin]-5-yl)-2,2,2-trifluoroethan-1-ol]",0.4,0.9,2.5,1.9,5.2,–,10,7,835,0.8,–,–,–,–,–,–,–,–,–,–
"CC(C)Nc1cc(Nc2ccnc(-c3cnn(S(=O)(=O)C4CC4)c3)n2)ncc1-c1cnc(OC(F)F)cn1 [Example 127, N^2-(2-(1-(Cyclopropylsulfonyl)-1H-pyrazol-4-yl)pyrimidin-4-yl)-5-(5-(difluoromethoxy)pyrazin-2-yl)-N^4-isopropylpyridine-2,4-diamine]",–,–,–,–,–,–,–,–,–,–,6.6,17.5,> 10000,> 10000,> 10000,–,–,–,–,–
"FC(F)Cn1cc(-c2nccc(Nc3cc(N[C@H]4CC[C@@H](F)CC4)c(-c4ccc(CN5CCOCC5)cn4)cn3)n2)cn1 [Example 136, N^6′-(2-(1-(2,2-difluoroethyl)-1H-pyrazol-4-yl)pyrimidin-4-yl)-N^4′-((1s,4s)-4-fluorocyclohexyl)-5-(morpholinomethyl)-[2,3′-bipyridine]-4′,6′-diamine]",–,–,–,–,–,–,–,–,–,–,0.2,0.5,6.4,19.1,69.8,–,–,–,–,–
"O=S(=O)(C1CC1)n1cc(-c2nccc(Nc3cc(N[C@H]4CC[C@@H](CO)CC4)c(-c4cnc(OC(F)F)cn4)cn3)n2)cn1 [Example 129, ((1s,4s)-4-((2-((2-(1-(Cyclopropylsulfonyl)-1H-pyrazol-4-yl)pyrimidin-4-yl)amino)-5-(5-(difluoromethoxy)pyrazin-2-yl)pyridin-4-yl)amino)cyclohexyl)methanol]",–,–,–,–,–,–,–,–,–,–,0.5,1.4,12.9,12.6,116,–,–,–,–,–
"CC(C)(O)c1ccnc(-c2cnc(Nc3ccnc(-c4cnn(S(=O)(=O)C5CC5)c4)n3)cc2N[C@H]2CC[C@@H](CO)CC2)c1 [Example 111, 2-(6′-((2-(1-(Cyclopropylsulfonyl)-1H-pyrazol-4-yl)pyrimidin-4-yl)amino)-4′-(((1s,4s)-4-(hydroxymethyl)cyclohexyl)amino)-[2,3′-bipyridin]-4-yl)propan-2-ol]",–,–,–,–,–,–,–,–,–,–,0.2,0.3,0.03,0.2,0.7,0.2,0.5,0.4,0.7,198
"CC(C)(O)[C@H]1CC[C@@H](Nc2cc(Nc3ccnc(-c4cnn(S(=O)(=O)C5CC5)c4)n3)ncc2-c2cccc(CC(F)(F)F)n2)CC1 [Example 247, 2-((1s,4s)-4-((6′-((2-(1-(Cyclopropylsulfonyl)-1H-pyrazol-4-yl)pyrimidin-4-yl)amino)-6-(2,2,2-trifluoroethyl)-[2,3′-bipyridin]-4′-yl)amino)cyclohexyl)propan-2-ol]",–,–,–,–,111,14.7,51.1,80.6,> 10000,2.6,–,–,–,–,–,–,–,–,–,–
"CC(C)(O)c1ccc(-c2cnc(Nc3ccnc(-c4cnn(S(=O)(=O)C5CC5)c4)n3)cc2NC2CCN(CC(F)F)CC2)nc1 [Example 178, 2-(6′-((2-(1-(Cyclopropylsulfonyl)-1H-pyrazol-4-yl)pyrimidin-4-yl)amino)-4′-((1-(2,2-difluoroethyl)piperidin-4-yl)amino)-[2,3′-bipyridin]-5-yl)propan-2-ol]",1,0.7,4.7,2.6,96.5,–,–,–,–,–,–,–,–,–,–,–,–,–,–,–
"CN1CCN(Cc2ccc(-c3cnc(Nc4ccnc(-c5cnn(S(=O)(=O)C6CC6)c5)n4)cc3N3CCC(C)(CO)CC3)nc2)CC1 [Example 1, (1-(6′-((2-(1-(Cyclopropylsulfonyl)-1H-pyrazol-4-yl)pyrimidin-4-yl)amino)-5-((4-methylpiperazin-1-yl)methyl)-[2,3′-bipyridin]-4′-yl)-4-methylpiperidin-4-yl)methanol]",–,–,–,–,–,–,–,–,–,–,0.4,1.2,10.5,37.5,212,1.3,0.8,223,52.3,> 10000
"CC(C)(O)c1ccnc(-c2cnc(Nc3ccnc(-c4cnn(S(=O)(=O)C5CC5)c4)n3)cc2N[C@H]2CC[C@@](C)(O)CC2)c1 [Example 108, (1s,4s)-4-((6′-((2-(1-(Cyclopropylsulfonyl)-1H-pyrazol-4-yl)pyrimidin-4-yl)amino)-4-(2-hydroxypropan-2-yl)-[2,3′-bipyridin]-4′-yl)amino)-1-methylcyclohexan-1-ol]",–,–,–,–,–,–,–,–,–,–,0.2,0.4,0.4,0.4,6.9,0.2,0.4,3.6,0.9,1860
"O=S(=O)(C1CC1)n1cc(-c2nccc(Nc3cc(N[C@H]4CC[C@@H](CO)CC4)c(-c4cccc(CC(F)(F)F)n4)cn3)n2)cn1 [Example 246, ((1s,4s)-4-((6′-((2-(1-(Cyclopropylsulfonyl)-1H-pyrazol-4-yl)pyrimidin-4-yl)amino)-6-(2,2,2-trifluoroethyl)-[2,3′-bipyridin]-4′-yl)amino)cyclohexyl)methanol]",0.4,3,12.4,6.9,42,7.2,45.2,21.1,> 10000,1.1,–,–,–,–,–,–,–,–,–,–

# Source: patent publication US12258328B2, “6-membered heteroaryl-containing aminopyridine compounds as EGFR inhibitors” (YUHAN CORPORATION, priority 2021, dated 2025)
